AC50 data for 23 compounds are collected here from patent publication US20230104936A1, “TRPML MODULATORS” (Casma Therapeutics, Inc., priority 2019, published 2023).

The assay has as its system TFEB. As to the kind of experiment: TFEB nuclear translocation assay, HeLa wt cells. To be noted: 2 hrs compound treatment, Table 1 does not say HeLa wt or TRPML1 KO. In kind it is cell-based. In short, it runs like this: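 HeLa wt cells were treated with compound for 2 hrs at 37° C, then fixed in 4% PFA and immunostained for TFEB with an Alexa 488 secondary and Hoechst nuclear counterstain. Automated epifluorescence imaging at ×20 gave the ratio of nuclear TFEB intensity to a perinuclear ring region, from which AC50 was derived.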

With `C[C@@H]1CN(CC2(C)CCN(c3c(F)cccc3NS(=O)(=O)c3ccc(S(=O)(=O)N(C)C)cc3)CC2)C[C@H](C)O1` [Compound A-781, N4-[2-(4-{[(2R,6S)-2,6-dimethylmorpholin-4-yl]methyl}-4-methylpiperidin-1-yl)-3-fluorophenyl]-N1,N1-dimethylbenzene-1,4-disulfonamide], for the setting “Homo sapiens, HeLa, 2 h”, the AC50 is ≤ 2000 nM.
Still for that read-out and setting: the value for `CN(C)S(=O)(=O)c1ccc(S(=O)(=O)Nc2ccccc2N2CCN(C(=O)C3CCCC3(F)F)CC2)cc1` (centres unmarked) [Compound A-459, N4-{2-[4-(2,2-difluorocyclopentanecarbonyl)piperazin-1-yl]phenyl}-N1,N1-dimethylbenzene-1,4-disulfonamide] was 2010 to 8000 nM.
Same read-out and setting: the value for `CC(=O)N(C)C1(c2ccc(Cl)cc2F)CCN(c2ccccc2NS(=O)(=O)c2ccc(S(=O)(=O)N(C)C)cc2)CC1` [Compound A-172, N-[4-(4-chloro-2-fluorophenyl)-1-{2-[4-(dimethylsulfamoyl)benzenesulfonamido]phenyl}piperidin-4-yl]-N-methylacetamide] was 2010 to 8000 nM; that for `C[C@H]1CN(c2ccccc2NS(=O)(=O)c2ccc(S(=O)(=O)N(C)C)cc2)CCN1C(=O)c1cscn1` [Compound A-416, N1,N1-dimethyl-N4-{2-[(3S)-3-methyl-4-(1,3-thiazole-4-carbonyl)piperazin-1-yl]phenyl}benzene-1,4-disulfonamide] was 2010 to 8000 nM.
Take `CC(c1cccc(F)c1N1CCC(CN2CCC(F)(F)CC2)CC1)S(=O)(=O)c1ccc(S(=O)(=O)N(C)C)cc1` (centres unmarked) [Compound A-804, 4-((1-(2-(4-((4,4-difluoropiperidin-1-yl)methyl)piperidin-1-yl)-3-fluorophenyl)ethyl)sulfonyl)-N,N-dimethylbenzenesulfonamide]: the AC50 is ≤ 2000 nM.
In the case of `CN(C)S(=O)(=O)c1ccc([S+]([O-])c2ccccc2N2CCC(c3ccc(Cl)cc3F)CC2)cc1` (centres unmarked) [Compound A-181, 4-((2-(4-(4-chloro-2-fluorophenyl)piperidin-1-yl)phenyl)sulfinyl)-N,N-dimethylbenzenesulfonamide], under “Homo sapiens, HeLa, 2 h”, the concentration at half-maximal activity (AC50) was in the range of 2010 to 8000 nM.
On the same count and under the same terms, the value for `C[C@@H]1CN(CC2CCN(c3c(C#N)cccc3NS(=O)(=O)c3ccc(S(=O)(=O)N(C)C)cc3)CC2)C[C@H](C)O1` [Compound A-878, N4-[3-cyano-2-(4-{[(2R,6S)-2,6-dimethylmorpholin-4-yl]methyl}piperidin-1-yl)phenyl]-N1,N1-dimethylbenzene-1,4-disulfonamide] was ≤ 2000 nM.
For the setting “Homo sapiens, HeLa, 2 h”, `COCC1(C)CCN(c2ccccc2NS(=O)(=O)Cc2cccc(S(=O)(=O)N(C)C)c2)CC1` [Compound A-680, 3-[({2-[4-(methoxymethyl)-4-methylpiperidin-1-yl]phenyl}sulfamoyl)methyl]-N,N-dimethylbenzene-1-sulfonamide] came in with a half-maximal activity concentration (AC50) of 8010 to 9990 nM.
Still for that read-out and setting: for `COCC1(C)CCN(c2ccccc2NC(c2ccc(S(=O)(=O)N(C)C)cc2)C(F)(F)F)CC1` (centres unmarked) [Compound A-684, N,N-dimethyl-4-(2,2,2-trifluoro-1-((2-(4-(methoxymethyl)-4-methylpiperidin-1-yl)phenyl)amino)ethyl)benzenesulfonamide] the value was 2010 to 8000 nM.
Same read-out and setting: for `CN(C)S(=O)(=O)c1ccc(S(=O)(=O)Nc2ccccc2N2CCCC23CCCOC3)cc1` (centres unmarked) [Compound A-499, N1,N1-dimethyl-N4-(2-{7-oxa-1-azaspiro[4.5]decan-1-yl}phenyl)benzene-1,4-disulfonamide] the value was ≤ 2000 nM.
On the same count and under the same terms, for `COC(=O)NC1(C)CCN(c2c(F)cccc2NS(=O)(=O)c2ccc(S(=O)(=O)N(C)C)cc2)CC1` [Compound A-825, methyl N-(1-{2-[4-(dimethylsulfamoyl)benzenesulfonamido]-6-fluorophenyl}-4-methylpiperidin-4-yl)carbamate] the value was ≤ 2000 nM; for `COC(C)(C)c1cccc(S(=O)(=O)Nc2ccccc2N2CCC3(CC2)COC(C)(C)C3)c1` [Compound A-634, N-(2-{3,3-dimethyl-2-oxa-8-azaspiro[4.5]decan-8-yl}phenyl)-3-(2-methoxypropan-2-yl)benzene-1-sulfonamide], 2010 to 8000 nM; for `CNS(=O)(=O)c1ccc(S(=O)(=O)Nc2ccccc2N2CCC(c3ccc(Cl)cc3F)CC2)cc1` [Compound A-424, N1-{2-[4-(4-chloro-2-fluorophenyl)piperidin-1-yl]phenyl}-N4-methylbenzene-1,4-disulfonamide], 2010 to 8000 nM.
On to `CC(N1CCN(c2ccccc2NS(=O)(=O)Cc2ccccc2)CC1)C(F)(F)F` (centres unmarked) [Compound A-542, 1-phenyl-N-{2-[4-(1,1,1-trifluoropropan-2-yl)piperazin-1-yl]phenyl}methanesulfonamide], for which, for the setting “Homo sapiens, HeLa, 2 h”, the concentration at half-maximal activity (AC50) is ≤ 2000 nM.
On the same count and under the same terms, for `CN1CCC2(CCN(c3ccccc3NS(=O)(=O)c3ccc(S(C)(=O)=O)cc3)CC2)c2ccccc21` [Compound A-492, 4-methanesulfonyl-N-(2-{1′-methyl-2′,3′-dihydro-1′H-spiro[piperidine-4,4′-quinolin]-1-yl}phenyl)benzene-1-sulfonamide] the value was ≤ 2000 nM; for `Cn1ccc(S(=O)(=O)Nc2ccccc2N2CCN(c3ccc(Cl)cc3F)CC2)n1` [Compound A-21, N-{2-[4-(4-chloro-2-fluorophenyl)piperazin-1-yl]phenyl}-1-methyl-1H-pyrazole-3-sulfonamide], 2010 to 8000 nM.
`O=S(=O)(Nc1ccccc1N1CCC(c2ccc(F)cc2F)CC1)c1ccc(C(F)F)nc1` [Compound A-136, 6-(difluoromethyl)-N-{2-[4-(2,4-difluorophenyl)piperidin-1-yl]phenyl}pyridine-3-sulfonamide]: the AC50 (Homo sapiens, HeLa, 2 h) was ≤ 2000 nM.
`CC(C)(C)C(=O)N1CCN(c2ccccc2NS(=O)(=O)c2ccc(C3CC3(F)F)cc2)CC1` (centres unmarked) [Compound A-528, 4-(2,2-difluorocyclopropyl)-N-{2-[4-(2,2-dimethylpropanoyl)piperazin-1-yl]phenyl}benzene-1-sulfonamide] displayed a concentration at half-maximal activity (AC50) (Homo sapiens, HeLa, 2 h) of 2010 to 8000 nM.
Turning to `O=S(=O)(Nc1ccccc1N1CCN(c2ccc(Cl)cc2F)CC1)C1CCOCC1` [Compound A-14, N-{2-[4-(4-chloro-2-fluorophenyl)piperazin-1-yl]phenyl}oxane-4-sulfonamide], the half-maximal activity concentration (AC50) (Homo sapiens, HeLa, 2 h) was in the range of 2010 to 8000 nM.
On the same count and under the same terms, the value for `O=S(=O)(Nc1ccccc1N1CCN(c2ccc(Cl)cc2F)CC1)c1cccnc1` [Compound A-1, N-{2-[4-(4-chloro-2-fluorophenyl)piperazin-1-yl]phenyl}pyridine-3-sulfonamide] was ≤ 2000 nM; that for `CN(C)S(=O)(=O)c1ccc(S(=O)(=O)C(c2cccc(F)c2N2CCCCC2)C2CC2)cc1` (single isomer, unassigned) [Compound A-982, 4-((cyclopropyl(3-fluoro-2-(piperidin-1-yl)phenyl)methyl)sulfonyl)-N,N-dimethylbenzenesulfonamide] was ≤ 2000 nM.
Same read-out and setting: for `CC(C)(C)C(=O)N1CCN(c2ccccc2NS(=O)(=O)c2ccc(C(F)(F)F)cc2)CC1` [Compound A-527, N-{2-[4-(2,2-dimethylpropanoyl)piperazin-1-yl]phenyl}-4-(trifluoromethyl)benzene-1-sulfonamide] the value was 2010 to 8000 nM; for `COCCS(=O)(=O)Nc1cccc(Cl)c1N1CCOCC1` [Compound A-364, N-[3-chloro-2-(morpholin-4-yl)phenyl]-2-methoxyethane-1-sulfonamide], ≥ 10000 nM.
